# Assay: Solubility
# Format: physicochemical
# Settings: precipitation at higher concentrations in the assay
smiles,measurement,value
O=C(Nc1ccc(-c2ccccc2)cc1)Nc1ccc(-c2ccnc3[nH]cnc23)cc1 [Compound 17],solubility,poor solubility
